Read-outs that look alike come from different tables or passages of the source.
How the values were obtained:
[1] = system: T. gondii RH strain (RH-Tub-eYFP) tachyzoites; assay: microbe, parasite or virus in culture; format: cell-based, Toxoplasma gondii; details: 72 h, library screen at 2 μg/mL, 72 h, % growth; for percent parasite growth at 2 µg/mL: Toxoplasma gondii
[2] = system: P. falciparum 3D7 parasites; assay: P. falciparum growth inhibition assay, 1-cycle (72 h treatment), SYBR DNA staining (library screen at 2 μg/mL and dose-response); format: cell-based, Plasmodium falciparum; details: library screen at 2 μg/mL, 72 h, % growth; for activity at 2 µg/mL: Plasmodium falciparum
[3] = system: P. falciparum 3D7 parasites; assay: P. falciparum growth inhibition assay, 2-cycle (120 h treatment), delayed-death screen and dose-response; format: cell-based, Plasmodium falciparum; details: library screen at 2 μg/mL, 120 h, % growth; for activity at 2 µg/mL: Plasmodium falciparum
[4] = replicate 1, read-out: Tg_72h_%Growth_Rep1
[5] = replicate 2, read-out: Tg_72h_%Growth_Rep2
[6] = 3D7, 72 h, replicate 1, read-out: Pf_72h_%Growth_Rep1
[7] = 3D7, 72 h, replicate 2, read-out: Pf_72h_%Growth_Rep2
[8] = 3D7, 120 h, replicate 1, read-out: Pf_120h_%Growth_Rep1
[9] = 3D7, 120 h, replicate 2, read-out: Pf_120h_%Growth_Rep2
[10] = 3D7, replicate 1, read-out: Pf_72h_%Growth_Rep1
[11] = 3D7, replicate 2, read-out: Pf_72h_%Growth_Rep2
[12] = 3D7, replicate 1, read-out: Pf_120h_%Growth_Rep1
[13] = 3D7, replicate 2, read-out: Pf_120h_%Growth_Rep2

Row | Compound | percent parasite growth at 2 µg/mL [1, 4] | percent parasite growth at 2 µg/mL [1, 5] | activity at 2 µg/mL [2, 6] | activity at 2 µg/mL [2, 7] | activity at 2 µg/mL [3, 8] | activity at 2 µg/mL [3, 9] | activity at 2 µg/mL [2, 10] | activity at 2 µg/mL [2, 11] | activity at 2 µg/mL [3, 12] | activity at 2 µg/mL [3, 13] | Tg_72h_%Growth_Rep1 ([1]; replicate 1) | Tg_72h_%Growth_Rep2 ([1]; replicate 2) | Pf_72h_%Growth_Rep1 ([2]; replicate 1) | Pf_72h_%Growth_Rep2 ([2]; replicate 2) | Pf_120h_%Growth_Rep1 ([3]; replicate 1) | Pf_120h_%Growth_Rep2 ([3]; replicate 2)
1 | COC[C@@H](C[C@H]1O[C@@](O)([C@H](O)[C@@H]2C[C@H](OC)[C@@H](O)CC/C=C(C)/C=C/[C@@H](O[C@@H]3O[C@@H](C)[C@H](OC)[C@@H](O)[C@@H]3O)[C@H](C)/C=C(C)/C=C(C)/C=C(\C)C(=O)O2)[C@H](C)[C@@H](O)[C@H]1C)OC1C[C@](C)(O)[C@@H](O[C@H]2C[C@@H](OC)[C@H](O)[C@@H](C)O2)[C@H](C)O1 (stereo partly drawn) [Apoptolidin] | 76.4% | 73% | 59% | 49.8% | 34.5% | 23.8% |  |  |  |  |  |  |  |  |  | 
2 | CC1(C)CC[C@]2(C(=O)O)CC[C@]3(C)C(=CC[C@@H]4[C@@]5(C)C[C@@H](O)[C@H](O)[C@@](C)(CO)[C@@H]5CC[C@]43C)[C@@H]2C1 [Arjunolic acid] | 85.6% | 73.6% |  |  |  |  | 75.9% | 83% | 72.4% | 76.3% |  |  |  |  |  | 
3 | CC(/C=C/[C@@]1(C)[C@H](C)CCC(=O)[C@@H]1C)=C\Cc1c(O)c(Cl)c(C)c(C=O)c1O [Ascochlorin] | 69.4% | 87.7% |  |  |  |  | 79.8% | 84.8% | 141% | 86.1% |  |  |  |  |  | 
4 | CC[C@@H]1/C=C(\C)C[C@H](C)C[C@H](OC)[C@H]2O[C@@](O)(C(=O)C(=O)N3CCCC[C@H]3C(=O)O[C@H](/C(C)=C/[C@@H]3CC[C@@H](O)[C@H](OC)C3)[C@H](C)[C@@H](O)CC1=O)[C@H](C)C[C@@H]2OC [Ascomycin] | 79.9% | 79.4% |  |  |  |  | 44.9% | 50.6% | 70.5% | 40.4% |  |  |  |  |  | 
5 | CC(C)CCCCCC=CCC(=O)N[C@@H](CC(=O)O)C(=O)N[C@@H]1C(=O)N2CCCC[C@@H]2C(=O)N[C@@H](C(C)C(=O)O)C(=O)N[C@@H](CC(=O)O)C(=O)NCC(=O)N[C@@H](CC(=O)O)C(=O)NCC(=O)N[C@H](C(C)N)C(=O)N[C@@H](C(C)C)C(=O)N2CCC[C@H]2C(=O)NC1C (stereo partly drawn) [Aspartocin D] |  |  |  |  |  |  |  |  |  |  | 85.89% | 91.61% | 103.30% | 89.43% | 152.69% | 104.90%
6 | COc1ccc2c(c1)C(=O)NC(Cc1ccccc1)C(=O)NCCC(=O)N1CCCC1C(=O)N2 (stereo not drawn) [Aspercolorin] |  |  |  |  |  |  |  |  |  |  | 77.01% | 95.41% | 96.39% | 82.46% | 146.59% | 102.81%
7 | C/C=C/C=C/[C@H]1Cc2cc(O)cc(O)c2O1 [Asperfuran] |  |  |  |  |  |  |  |  |  |  | 65.57% | 59.68% | 81.82% | 86.77% | 70.89% | 94.19%
8 | O=C(N[C@H](COC(=O)[C@H](Cc1ccccc1)NC(=O)c1ccccc1)Cc1ccccc1)c1ccccc1 [Asperphenamate] | 150% | 107% |  |  |  |  | 84.3% | 83.3% | 69.7% | 85.4% |  |  |  |  |  | 
9 | CC(=O)OCC1=C[C@@H]2OC(=O)C3=CO[C@@H](O[C@@H]4O[C@H](CO)[C@@H](O)[C@H](O)[C@H]4O)[C@H]1[C@@H]32 [Asperuloside] | 123% | 97.1% |  |  |  |  | 86.2% | 89.3% | 94.8% | 94.6% |  |  |  |  |  | 
10 | CC1=C[C@@H]2/C=C(\C)CC[C@H](O)[C@H](O)/C=C/C(=O)[C@]23C(=O)N[C@@H](CC(C)C)[C@@H]3[C@@H]1C [Aspochalasin D] | 5.85% | 2.85% | 71.8% | 78.2% | 74.4% | 80.7% |  |  |  |  |  |  |  |  |  | 
11 | CC1=C[C@@H]2/C=C(/C)CCC(=O)[C@@H](O)CCC(=O)[C@]23C(=O)N[C@@H](CC(C)C)[C@@H]3[C@@H]1C [Aspochalasin M] |  |  |  |  |  |  |  |  |  |  | 143.85% | 96.90% | 78.34% | 81.89% | 80.74% | 79.20%
12 | C/C=C/C=C/C=C/C(=O)N[C@H]1CCCNC(=O)[C@H](C)N(C)C(=O)[C@H](C(C)C)N(C)C1=O [Aspochracin] |  |  |  |  |  |  |  |  |  |  | 82.68% | 94.06% | 109.60% | 89.28% | 147.75% | 101.25%
13 | CC(C)=CCc1cc(C=C2OC(=O)C(c3cc(CC=C(C)C)c(O)cc3O)=C2O)ccc1O [Aspulvinone O] |  |  |  |  |  |  |  |  |  |  | 90.15% | 99.19% | 82.88% | 86.74% | 144.60% | 98.61%
14 | COC(=O)c1cc(O)cc(OC)c1Oc1cc(C)cc(O)c1C(=O)O [Asterric Acid] | 79.1% | 94.1% |  |  |  |  | 98.8% | 86.1% | 145% | 103% |  |  |  |  |  | 
15 | COc1c(OC)c(-c2c[nH]c3ccccc23)c(OC)c(OC)c1-c1c[nH]c2ccccc12 [Asterriquinol D dimethylether] |  |  |  |  |  |  |  |  |  |  | 135.53% | 89.90% | 80.59% | 80.67% | 55.71% | 80.70%
16 | O=C(/C=C/C=C/C=C/C1CCCCC1)NC1=C[C@@](O)(/C=C/C=C/C=C/C(=O)NC2=C(O)CCC2=O)[C@@H]2O[C@@H]2C1=O [Asukamycin] |  |  |  |  |  |  |  |  |  |  | 161.41% | 93.58% | 79.58% | 78.85% | 67.03% | 82.56%
17 | C=CC(C)(C)C12CC3C(=O)Nc4ccccc4C(=O)N3C1Nc1ccccc12 (stereo not drawn) [Aszonalenin] |  |  |  |  |  |  |  |  |  |  | 156.81% | 98.02% | 81.55% | 89.57% | 90.27% | 94.67%
18 | C=C1CC[C@H]2[C@@](C)(CC[C@H]3C(C)(C)[C@@H](OC(C)=O)CC[C@]23C)[C@@H]1Cc1c(O)cc(C)oc1=O [Aszonapyrone A] |  |  |  |  |  |  |  |  |  |  | 111.51% | 88.05% | 77.27% | 75.32% | 67.56% | 67.36%
19 | COC1=C(OC)C(=O)C(C)=C(C)C1=O [Aurantiogliocladin] |  |  |  |  |  |  |  |  |  |  | 92.07% | 99.65% | 5.55% | 9.01% | 10.46% | -13.06%
20 | COc1oc([C@H]2C/C(=C/C(C)=C/c3ccc([N+](=O)[O-])cc3)CO2)c(C)c(=O)c1C [Aureothin] |  |  |  |  |  |  |  |  |  |  | 66.52% | 65.05% | 103.52% | 87.70% | 128.40% | 61.20%

Source: PMC12396409, “Screening and hit evaluation of a microbial metabolite library against the pathogenic Plasmodium falciparum and Toxoplasma gondii parasites” (International Journal for Parasitology: Drugs and Drug …, 2025)
